Source: patent publication US20030114385A1, “Viral enzyme activated prototoxophores and use of same to treat viral infections” (priority 2001, published 2003)
Several values for one entry are separate records, joined by “and”; a condition that tells them apart may be missing. Identical values can stand only once. Like-named read-outs stand apart in the source and are kept apart here. Square brackets hold non-standard residues; d marks the D form. Peptide text beside a SMILES is read from it. * marks the point of attachment. NH(4-NH2-anthraquinon-1-yl) = Nc1ccc(N*)c2c1C(=O)c1ccccc1C2=O; Cha = N[C@@H](CC1CCCCC1)C(=O)O; Abu = CC[C@H](N)C(=O)O

Tests used:
Assay type in all cases: cell-based, human
[1] = system: Det551 (skin fibroblasts)
Description: (§1) IC50 values of various potential HCV ECTA compounds (5761-5768) were determined using CCD 18co (normal colon epithelial cells), Det551 (skin fibroblasts), MCF7TDX (Tomudex resistant breast carcinoma cell line), HepG2 and Hep3B (hepatocellular carcinoma cell lines). Compound 5759 mimics the “released toxin” and serves as a positive control. IC50=the concentration of HCV ECTA compound that inhibits cellular growth by 50%.
(§2) Normal human colon epithelial cells (CCD18co), skin fibroblasts (Det551) Hepatocellular carcinoma cell lines (Hep3B and HepG2), breast cancer cell line (MCF7) and fibrosarcoma cell line (HT1080) were all purchased from the American Type Culture Collection (ATCC; Rockville Md.). MCF7TDX, human breast carcinoma cells resistant to 2 μM Tomudex™ have been described (ref. 98). Cells were cultured at 37° C. in 95% humidified air/5% CO2 in RPMI 1640 culture medium containing 10% fetal calf serum (Life Technologies) and penicillin/streptomycin/fungizone. MCF7TDX cells were maintained continuously in 2 μM Tomudex™. Normal cells were passaged a maximum of 15 times to avoid senescence.
(§3) The cytotoxic activity of various candidate prototoxophores was assessed by determining the IC50 value (concentration that inhibits cellular growth by 50%) in cellular proliferation assays and compared with the results obtained using the 5759 toxophore. Exponentially growing cells were transferred at a density of 1000 to 5500 cells per well to a 96 well tissue culture plate and allowed to attach for 24 hr. HCV ECTA compounds were applied in duplicate half log serial dilutions. After an additional 72 hr incubation, surviving adherent cells were washed once with PBS and stained with 0.5% crystal violet in methanol. Sorenson's buffer (0.025 M sodium citrate, 0.025 M citric acid in 50% ethanol) was added to each well and absorbance at 540 nm was monitored (absorbance at 540 nm correlates with cell survival; see refs. 103 to 105). Semi-adherent or non-adherent cells were stained with CYQUANT stain according to the protocol provided with the cell proliferation assay kit (C-7026; Molecular Probes; Eugene Oreg.). Fluorescence (485 nm excitation, 535 nm emission) was monitored. IC50 values were derived from sigmoid curves fit according to the Hill inhibitory Emax model (ref. 106).
(§4) Det551 or MCF7TDX cells were treated with compounds 5759, 5761, 5763 and 5767 for 2, 6, 12, 24 and 72 hours. After the indicated times the compounds were removed, the cells were washed, incubated for a total of 72 hours and IC50 values were determined. IC50=the concentration of HCV ECTA compound that inhibits cellular growth by 50%.
(§5) Cells were treated with compounds 5759, 5762 or 5763 for 15 hours. After removal of the compounds, the cells were washed, incubated for a total of 72 hours and IC50 values were determined. IC50=the concentration of HCV ECTA compound that inhibits cellular growth by 50%.

[2] = system: MCF7TDX (Tomudex resistant breast carcinoma cell line)
Description: as §1, §2, §3, §4, §5

[3] = system: HepG2 (hepatocellular carcinoma cell line)
Description: as §1, §2, §3, §5

[4] = system: CCD18co (normal colon epithelial cells)
Description: as §1, §2, §3, §5

[5] = system: Hep3B (hepatocellular carcinoma cell line)
Description: as §1, §2, §3, §5

[6] = Det551, 2 h exposure, washed, total 72 hours, read-out: IC50 after various times of drug exposure
[7] = Det551, 6 h exposure, washed, total 72 hours, read-out: IC50 after various times of drug exposure
[8] = Det551, 12 h exposure, washed, total 72 hours, read-out: IC50 after various times of drug exposure
[9] = MCF7/TDX, 2 h exposure, washed, total 72 hours, read-out: IC50 after various times of drug exposure
[10] = MCF7/TDX, 6 h exposure, washed, total 72 hours, read-out: IC50 after various times of drug exposure
[11] = MCF7/TDX, 12 h exposure, washed, total 72 hours, read-out: IC50 after various times of drug exposure
[12] = MCF7/TDX, 24 h exposure, washed, total 72 hours, read-out: IC50 after various times of drug exposure
[13] = MCF7/TDX, 72 h exposure, read-out: IC50 after various times of drug exposure
[14] = HepG2, 72 hr incubation, read-out: IC50 (concentration that inhibits cellular growth by 50%)
[15] = 72 hr incubation, read-out: IC50 (concentration that inhibits cellular growth by 50%)
[16] = Det551, 15 hours exposure, washed, total 72 hours, read-out: IC50 after 15 hour of drug exposure
[17] = MCF7TDX, 15 hours exposure, washed, total 72 hours, read-out: IC50 after 15 hour of drug exposure
[18] = 15 hours exposure, washed, total 72 hours, read-out: IC50 after 15 hour of drug exposure
[19] = HepG2, 15 hours exposure, washed, total 72 hours, read-out: IC50 after 15 hour of drug exposure
[20] = Det551, 24 h exposure, washed, total 72 hours, read-out: IC50 after various times of drug exposure
[21] = Det551, 72 h exposure, read-out: IC50 after various times of drug exposure
[22] = Det551, 72 hr incubation, read-out: IC50 (concentration that inhibits cellular growth by 50%)
[23] = MCF7TDX, 72 hr incubation, read-out: IC50 (concentration that inhibits cellular growth by 50%)

SMILES	IC50 [1, 6]	IC50 [1, 7]	IC50 [1, 8]	IC50 [2, 9]	IC50 [2, 10]	IC50 [2, 11]	IC50 [2, 12]	IC50 [2, 13]	IC50 [3, 14]	IC50 [4, 15]	IC50 [1, 16]	IC50 [2, 17]	IC50 [5, 18]	IC50 [3, 19]	IC50 [4, 18]	IC50 [1, 20]	IC50 [1, 21]	IC50 [1, 22]	IC50 [2, 23]	IC50 [5, 15]
CC(=O)N[C@@H](CC(=O)O)C(=O)N[C@@H](CCC(=O)O)C(=O)N[C@H](C(=O)N[C@H](C(=O)N1CCC[C@H]1C(=O)N[C@@H](CS)C(=O)N[C@@H](CO)C(=O)NCC(=O)NCC(=O)Nc1ccc(N)c2c1C(=O)c1ccccc1C2=O)C(C)C)C(C)C [Compound 5761, Acetyl-Asp-Glu-Val-Val-Pro-Cys-Ser-Gly-Gly-toxin] (Ac-DEVVPCSGG-{NH(4-NH2-anthraquinon-1-yl)})	> 150 µM	> 150 µM and 126 µM	> 150 µM and 88 µM	> 150 µM	> 150 µM	89 µM	28 µM	5 µM	51.1 µM	24.4 µM	–	–	–	–	–	–	–	–	–	–
CC(=O)N[C@@H](CC(=O)O)C(=O)N[C@@H](CCC(=O)O)C(=O)N[C@@H](C)C(=O)N[C@H](C(=O)N[C@@H](CC(C)C)C(=O)N[C@@H](CS)C(=O)N[C@@H](CO)C(=O)NCC(=O)NCC(=O)Nc1ccc(N)c2c1C(=O)c1ccccc1C2=O)C(C)C [Compound 5762, Acetyl-Asp-Glu-Ala-Val-Leu-Cys-Ser-Gly-Gly-toxin] (Ac-DEAVLCSGG-{NH(4-NH2-anthraquinon-1-yl)})	–	–	–	–	–	–	–	–	–	–	46 µM	132 µM	> 150 µM	> 150 µM	77 µM	–	–	–	–	–
CC(=O)N[C@@H](CC(=O)O)C(=O)N[C@@H](CCC(=O)O)C(=O)N[C@H](C(=O)N[C@H](C(=O)N1CCC[C@H]1C(=O)N[C@@H](CS)C(=O)N[C@@H](CO)C(=O)NCC(=O)NCC(=O)Nc1ccc(N)c2c1C(=O)c1ccccc1C2=O)[C@@H](C)O)C(C)C [Compound 5763, Acetyl-Asp-Glu-Val-Thr-Pro-Cys-Ser-Gly-Gly-toxin] (Ac-DEVTPCSGG-{NH(4-NH2-anthraquinon-1-yl)})	> 150 µM	120 µM	84 µM	> 150 µM	> 150 µM	116 µM	32 µM	7 µM	–	–	131 µM	146 µM	> 150 µM	> 150 µM	112 µM	48 µM	17 µM	17 µM	6 µM	–
CC(=O)N[C@@H](CC(=O)O)C(=O)N[C@@H](CCC(=O)O)C(=O)N1CCC[C@H]1C(=O)N[C@@H](CC(C)C)C(=O)N[C@@H](C)C(=O)N[C@@H](CS)C(=O)N[C@@H](CO)C(=O)NCC(=O)NCC(=O)Nc1ccc(N)c2c1C(=O)c1ccccc1C2=O [Compound 5765, Acetyl-Asp-Glu-Pro-Leu-Ala-Cys-Ser-Gly-Gly-toxin] (Ac-DEPLACSGG-{NH(4-NH2-anthraquinon-1-yl)})	–	–	–	–	–	–	–	–	18 µM and 21 µM	28 µM and 33 µM and 38 µM	–	–	–	–	–	–	–	15 µM and 16 µM	–	25 µM and 26 µM
CC[C@H](NC(=O)[C@H](CC1CCCCC1)NC(=O)[C@H](CCC(=O)O)NC(=O)[C@H](Cc1ccccc1)NC(=O)[C@H](CCC(=O)O)NC(=O)[C@H](CC(=O)O)NC(C)=O)C(=O)N[C@@H](CO)C(=O)NCC(=O)NCC(=O)Nc1ccc(N)c2c1C(=O)c1ccccc1C2=O [Compound 5766, Acetyl-Asp-Glu-Phe-Glu-Cha-ABA-Ser-Gly-Gly-toxin] (Ac-DEFE[Cha][Abu]SGG-{NH(4-NH2-anthraquinon-1-yl)})	–	–	–	–	–	–	–	–	24.5 µM	10.2 µM	–	–	–	–	–	–	–	5.3 µM	8.5 µM	–
CC[C@H](NC(=O)[C@H](CC(C)C)NC(=O)[C@@H](NC(=O)[C@H](C)NC(=O)[C@H](CCC(=O)O)NC(=O)[C@H](CC(=O)O)NC(C)=O)C(C)C)C(=O)N[C@@H](CO)C(=O)NCC(=O)NCC(=O)Nc1ccc(N)c2c1C(=O)c1ccccc1C2=O [Compound 5767, Acetyl-Asp-Glu-Ala-Val-Leu-ABA-Ser-Gly-Gly-toxin] (Ac-DEAVL[Abu]SGG-{NH(4-NH2-anthraquinon-1-yl)})	> 150 µM	13 µM	11 µM	–	–	–	–	–	13.8 µM	13.2 µM	–	–	–	–	–	11 µM	8 µM	5.1 µM and 8 µM	8 µM	–
CC[C@H](NC(=O)[C@@H]1CCCN1C(=O)[C@@H](NC(=O)[C@@H](NC(=O)[C@H](CCC(=O)O)NC(=O)[C@H](CC(=O)O)NC(C)=O)C(C)C)[C@@H](C)O)C(=O)N[C@@H](CO)C(=O)NCC(=O)NCC(=O)Nc1ccc(N)c2c1C(=O)c1ccccc1C2=O [Compound 5768, Acetyl-Asp-Glu-Val-Tbr-Pro-ABA-Ser-Gly-Gly-toxin] (Ac-DEVTP[Abu]SGG-{NH(4-NH2-anthraquinon-1-yl)})	–	–	–	–	–	–	–	–	24 µM	32 µM	–	–	–	–	–	–	–	–	14 µM	–
